In patent US20230278996A1, “YKL-40 INHIBITORS AND THEIR THERAPEUTIC APPLICATIONS” (Molecure S.A., priority 2022, published 2023) one finds IC50 data, which are given here for 30 molecules.

Where a name gives a salt, the structure may show the parent alone. A value given as a limit tells only on which side of the number the result lay.

Sequence of YKL-40: heparan sulfate interaction (P36222 22-383): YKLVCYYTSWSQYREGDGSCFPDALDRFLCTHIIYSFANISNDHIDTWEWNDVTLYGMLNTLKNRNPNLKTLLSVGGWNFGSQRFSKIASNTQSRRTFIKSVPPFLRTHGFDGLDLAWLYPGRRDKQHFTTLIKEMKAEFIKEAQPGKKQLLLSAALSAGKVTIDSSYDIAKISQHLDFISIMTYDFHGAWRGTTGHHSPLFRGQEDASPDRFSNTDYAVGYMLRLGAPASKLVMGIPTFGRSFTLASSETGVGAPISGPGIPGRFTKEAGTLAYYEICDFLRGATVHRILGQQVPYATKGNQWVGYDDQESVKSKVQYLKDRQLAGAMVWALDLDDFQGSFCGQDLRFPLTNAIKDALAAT

The target in one experiment is YKL-40 (Homo sapiens (Human), UniProt P36222). The experiment can be described thus: YKL-40:4 assay, competitive chitin binding site AlphaScreen. To be noted: competition with biotinylated compound 4 (20 nM), YKL-40-histag 2.5 nM. A general note: In Alpha technology, singlet oxygen from a donor bead excites a nearby acceptor bead.
Sequence of YKL-40 (P36222 22-383): as above
Broadly, the IC50 is the midpoint of a concentration-inhibition curve. Read a low IC50 as greater potency. Turning to `CN1C[C@H](Cc2ccc(Cl)cc2)N(C2CCN(c3cc(Cl)ccn3)CC2)C[C@@H]1CN1CCOCC1` [compound 51, 4-(((2S,5S)-5-(4-chlorobenzyl)-4-(1-(4-chloropyridin-2-yl)piperidin-4-yl)-1-methyl-piperazin-2-yl)methyl)morpholine hydrochloride], the IC50 was under 0.1 µM.
Same read-out and setting: the value for `CN1C[C@H](Cc2ccc(Cl)cc2)N(C2CCN(c3ccccn3)CC2)C[C@@H]1Cc1ccc(Cl)cc1` [compound 63, (2S,5S)-2,5-bis(4-chlorobenzyl)-1-methyl-4-(1-(pyridin-2-yl)piperidin-4-yl)piperazine 2,2,2-trifluoroacetate] was 1 to 10 µM; that for `CN1C[C@H](Cc2ccc(Cl)cc2)N(C2CCN(c3cc(Cl)ccn3)CC2)C[C@@H]1Cn1ccnc1` [compound 82, (2R,5S)-2-((1H-imidazol-1-yl)methyl)-5-(4-chlorobenzyl)-4-(1-(4-chloropyridin-2-yl)piperidin-4-yl)-1-methylpiperazine hydrochloride] was under 0.1 µM; that for `CNC(=O)CN1C[C@H](Cc2ccc(Cl)cc2)N(C2CCN(c3ccccn3)CC2)C[C@@H]1CC(C)C` [compound 95, 2-((2S,5S)-5-(4-chlorobenzyl)-2-isobutyl-4-(1-(pyridin-2-yl)piperidin-4-yl)piperazin-1-yl)-N-methylacetamide 2,2,2-trifluoroacetate] was under 0.1 µM.
Same read-out and setting: to `CNC(=O)CN1C[C@H](Cc2ccc(Cl)cc2)N(C2CCN(c3ccccn3)CC2)C[C@@H]1C(C)C` [compound 106, 2-((2S,5S)-5-(4-chlorobenzyl)-2-isopropyl-4-(1-(pyridin-2-yl)piperidin-4-yl)piperazin-1-yl)-N-methylacetamide 2,2,2-trifluoroacetate] belongs under 0.1 µM; to `C[C@H]1CN(C2CCN(c3cccc4nccn34)CC2)[C@@H](Cc2ccc(Cl)cc2)CO1` [compound 157, (2S,5S)-5-(4-chlorobenzyl)-4-(1-(imidazo[1,2-α]pyridin-5-yl)piperidin-4-yl)-2-methylmorpholine hydrochloride], 10 to 100 µM; to `C[C@H]1CN(C2CCN(c3cnc(C(F)(F)F)cn3)CC2)[C@@H](Cc2ccc(Cl)cc2)CO1` [compound 158, (2S,5S)-5-(4-chlorobenzyl)-2-methyl-4-(1-(5-(trifluoromethyl)pyrazin-2-yl)piperidin-4-yl)morpholine hydrochloride], over 100 µM.
Same read-out and setting: to `C[C@H]1CN(c2ccc(-c3ccccn3)cc2)[C@@H](Cc2ccc(Cl)cc2)CO1` [compound 159, (2S,5S)-5-(4-chlorobenzyl)-2-methyl-4-(4-(pyridin-2-yl)phenyl)morpholine hydrochloride] belongs 0.1 to 1 µM.
`C[C@H]1CN(C2CCN(c3ncccc3O)CC2)[C@@H](Cc2ccc(Cl)cc2)CO1` [compound 160, 2-(4-((2S,5S)-5-(4-chlorobenzyl)-2-methylmorpholino)piperidin-1-yl)pyridin-3-ol 2,2,2-trifluoroacetate] yielded an IC50 of over 100 µM.
`C[C@H]1CN(C2CCN(c3cc(O)ccn3)CC2)[C@@H](Cc2ccc(Cl)cc2)CO1` [compound 161, 2-(4-((2S,5S)-5-(4-chlorobenzyl)-2-methylmorpholino)piperidin-1-yl)pyridin-4-ol 2,2,2-trifluoroacetate] had an IC50 of 10 to 100 µM.
As to `COc1cccnc1N1CCC(N2C[C@H](C)OC[C@@H]2Cc2ccc(Cl)cc2)CC1` [compound 162, (2S,5S)-5-(4-chlorobenzyl)-4-(1-(3-methoxypyridin-2-yl)piperidin-4-yl)-2-methylmorpholine 2,2,2-trifluoroacetate], the IC50 is over 100 µM.
As for `CC(C)c1nc(N2CCC(N3C[C@H](C)OC[C@@H]3Cc3ccc(Cl)cc3)CC2)no1` [compound 163, (2S,5S)-5-(4-chlorobenzyl)-4-(1-(5-isopropyl-1,2,4-oxadiazol-3-yl)piperidin-4-yl)-2-methylmorpholine 2,2,2-trifluoroacetate], the IC50 is over 100 µM.
Still for that read-out and setting: the value for `C[C@H]1CN(C2CCN(c3noc(C(F)(F)F)n3)CC2)[C@@H](Cc2ccc(Cl)cc2)CO1` [compound 164, (2S,5S)-5-(4-chlorobenzyl)-2-methyl-4-(1-(5-(trifluoromethyl)-1,2,4-oxadiazol-3-yl)piperidin-4-yl)morpholine 2,2,2-trifluoroacetate] was over 100 µM; that for `C[C@H]1CN(C2CCN(c3noc(=O)[nH]3)CC2)[C@@H](Cc2ccc(Cl)cc2)CO1` [compound 165, 3-(4-((2S,5S)-5-(4-chlorobenzyl)-2-methylmorpholino)piperidin-1-yl)-1,2,4-oxadiazol-5(4H)-one 2,2,2-trifluoroacetate] was over 100 µM.
The same measure, in the same setting: the value for `C[C@H]1CN(C2CCN(c3nnn[nH]3)CC2)[C@@H](Cc2ccc(Cl)cc2)CO1` [compound 166, (2S,5S)-4-(1-(1H-tetrazol-5-yl)piperidin-4-yl)-5-(4-chlorobenzyl)-2-methylmorpholine 2,2,2-trifluoroacetate] was over 100 µM.
Take `C[C@H]1CN(C2CCN(c3cc(=O)[nH]cn3)CC2)[C@@H](Cc2ccc(Cl)cc2)CO1` [compound 167, 6-(4-((2S,5S)-5-(4-chlorobenzyl)-2-methylmorpholino)piperidin-1-yl)pyrimidin-4(3H)-one 2,2,2-trifluoroacetate]: the IC50 is over 100 µM.
Molecule `C[C@H]1CN(C2CCN(c3ncc(C(F)(F)F)o3)CC2)[C@@H](Cc2ccc(Cl)cc2)CO1` [compound 168, (2S,5S)-5-(4-chlorobenzyl)-2-methyl-4-(1-(5-(trifluoromethyl)oxazol-2-yl)piperidin-4-yl)morpholine 2,2,2-trifluoroacetate] returned a 50% inhibitory concentration (IC50) of over 100 µM.
`C[C@H]1CN(C2CCN(c3ncnc(Cl)n3)CC2)[C@@H](Cc2ccc(Cl)cc2)CO1` [compound 169, (2S,5S)-4-(1-(4-chloro-1,3,5-triazin-2-yl)piperidin-4-yl)-5-(4-chlorobenzyl)-2-methylmorpholine 2,2,2-trifluoroacetate]: the IC50 is over 100 µM.
The molecule `C[C@H]1CN(C2CCN(c3ncnc(O)n3)CC2)[C@@H](Cc2ccc(Cl)cc2)CO1` [compound 170, 4-(4-((2S,5S)-5-(4-chlorobenzyl)-2-methylmorpholino)piperidin-1-yl)-1,3,5-triazin-2-ol 2,2,2-trifluoroacetate] returned an IC50 of over 100 µM.
Still for that read-out and setting: the value for `COc1ncnc(N2CCC(N3C[C@H](C)OC[C@@H]3Cc3ccc(Cl)cc3)CC2)n1` [compound 171, (2S,5S)-5-(4-chlorobenzyl)-4-(1-(4-methoxy-1,3,5-triazin-2-yl)piperidin-4-yl)-2-methylmorpholine 2,2,2-trifluoroacetate] was over 100 µM; that for `Cc1ncnc(N2CCC(N3C[C@H](C)OC[C@@H]3Cc3ccc(Cl)cc3)CC2)n1` [compound 172, (2S,5S)-5-(4-chlorobenzyl)-2-methyl-4-(1-(4-methyl-1,3,5-triazin-2-yl)piperidin-4-yl)morpholine 2,2,2-trifluoroacetate] was over 100 µM.
Same read-out and setting: to `C[C@H]1CN(C2CCN(c3ncnc(C#N)n3)CC2)[C@@H](Cc2ccc(Cl)cc2)CO1` [compound 173, 4-(4-((2S,5S)-5-(4-chlorobenzyl)-2-methylmorpholino)piperidin-1-yl)-1,3,5-triazine-2-carbonitrile 2,2,2-trifluoroacetate] belongs over 100 µM; to `C[C@H]1CN(C2CCN(c3ncnc(N)n3)CC2)[C@@H](Cc2ccc(Cl)cc2)CO1` [compound 174, 4-(4-((2S,5S)-5-(4-chlorobenzyl)-2-methylmorpholino)piperidin-1-yl)-1,3,5-triazin-2-amine 2,2,2-trifluoroacetate], over 100 µM; to `C[C@H]1CN(C2CCN(c3ncnc(N(C)C)n3)CC2)[C@@H](Cc2ccc(Cl)cc2)CO1` [compound 175, 4-(4-((2S,5S)-5-(4-chlorobenzyl)-2-methylmorpholino)piperidin-1-yl)-N,N-dimethyl-1,3,5-triazin-2-amine 2,2,2-trifluoroacetate], over 100 µM.
`C[C@H]1CN(C2CCN(c3ncns3)CC2)[C@@H](Cc2ccc(Cl)cc2)CO1` [compound 179, (2S,5S)-4-(1-(1,2,4-thiadiazol-5-yl)piperidin-4-yl)-5-(4-chlorobenzyl)-2-methylmorpholine 2,2,2-trifluoroacetate] came in with an IC50 of over 100 µM.
The same measure, in the same setting: the value for `Cc1nsc(N2CCC(N3C[C@H](C)OC[C@@H]3Cc3ccc(Cl)cc3)CC2)n1` [compound 180, (2S,5S)-5-(4-chlorobenzyl)-2-methyl-4-(1-(3-methyl-1,2,4-thiadiazol-5-yl)piperidin-4-yl)morpholine 2,2,2-trifluoroacetate] was over 100 µM; that for `C[C@H]1CN(C2CCN(c3nncs3)CC2)[C@@H](Cc2ccc(Cl)cc2)CO1` [compound 181, (2S,5S)-4-(1-(1,3,4-thiadiazol-2-yl)piperidin-4-yl)-5-(4-chlorobenzyl)-2-methylmorpholine 2,2,2-trifluoroacetate] was over 100 µM.
Turning to `Cc1nnc(N2CCC(N3C[C@H](C)OC[C@@H]3Cc3ccc(Cl)cc3)CC2)s1` [compound 182, (2S,5S)-5-(4-chlorobenzyl)-2-methyl-4-(1-(5-methyl-1,3,4-thiadiazol-2-yl)piperidin-4-yl)morpholine 2,2,2-trifluoroacetate], the IC50 was over 100 µM.
The same measure, in the same setting: the value for `Cc1csc(N2CCC(N3C[C@H](C)OC[C@@H]3Cc3ccc(Cl)cc3)CC2)n1` [compound 184, (2S,5S)-5-(4-chlorobenzyl)-2-methyl-4-(1-(4-methylthiazol-2-yl)piperidin-4-yl)morpholine 2,2,2-trifluoroacetate] was 1 to 10 µM.
The same measure, in the same setting: the value for `Cc1noc(N2CCC(N3C[C@H](C)OC[C@@H]3Cc3ccc(Cl)cc3)CC2)n1` [compound 188, (2S,5S)-5-(4-chlorobenzyl)-2-methyl-4-(1-(3-methyl-1,2,4-oxadiazol-5-yl)piperidin-4-yl)morpholine 2,2,2-trifluoroacetate] was over 100 µM.

A further experiment concerns the target YKL-40: heparan sulfate interaction (Homo sapiens (Human), UniProt P36222). Put plainly: YKL-40:HS assay, heparan sulfate interference AlphaScreen. The note with it: competition with biotinylated heparan sulphate (60 nM). In kind it is binding.
Protocol: In the similar way to establishing YKL-40 chitin binding site competitive AlphaScreen assay (section 3), the YKL-40 AlphaScreen assay using biotinylated 9 kDa heparan sulfate fraction III was established, including the same buffer conditions (50 mM Tris HCl pH 7.4, 150 mM NaCl, 10 mM MgCl2, 0.05% Tween 20, 1 mg/mL BSA 1% DMSO). […] Next, biotinylated heparan sulfate fraction III custom-ordered from Iduron was cross-titrated with histagged YKL-40 using AlphaScreen assay described above.
Positive and negative control wells received just 8 uL of MST buffer containing 2% DMSO without inhibitor in the 2nd step (ii). In addition, negative control received just 8 uL of MST buffer containing 0% DMSO without YKL-40-histag in the 3nd step (iii). Finally, the plate luminescence was excited at 680 nm and the emission read at 520-620 nm using the AlphaScreen module in the The Spark™ 10 M multimode microplate reader (Tecan Trading AG, Männedorf, Switzerland). Inhibition percentage and IC50 values were determined using GraphPad Prism 7.0 software (GraphPad Software, San Diego, Calif., USA).
Take `CN1C[C@H](Cc2ccc(Cl)cc2)N(C2CCN(c3cc(Cl)ccn3)CC2)C[C@@H]1CN1CCOCC1` [compound 51, 4-(((2S,5S)-5-(4-chlorobenzyl)-4-(1-(4-chloropyridin-2-yl)piperidin-4-yl)-1-methyl-piperazin-2-yl)methyl)morpholine hydrochloride]: the IC50 was under 0.1 µM.
On the same count and under the same terms, to `CN1C[C@H](Cc2ccc(Cl)cc2)N(C2CCN(c3ccccn3)CC2)C[C@@H]1Cc1ccc(Cl)cc1` [compound 63, (2S,5S)-2,5-bis(4-chlorobenzyl)-1-methyl-4-(1-(pyridin-2-yl)piperidin-4-yl)piperazine 2,2,2-trifluoroacetate] belongs 0.1 to 1 µM; to `CN1C[C@H](Cc2ccc(Cl)cc2)N(C2CCN(c3cc(Cl)ccn3)CC2)C[C@@H]1Cn1ccnc1` [compound 82, (2R,5S)-2-((1H-imidazol-1-yl)methyl)-5-(4-chlorobenzyl)-4-(1-(4-chloropyridin-2-yl)piperidin-4-yl)-1-methylpiperazine hydrochloride], under 0.1 µM; to `CNC(=O)CN1C[C@H](Cc2ccc(Cl)cc2)N(C2CCN(c3ccccn3)CC2)C[C@@H]1CC(C)C` [compound 95, 2-((2S,5S)-5-(4-chlorobenzyl)-2-isobutyl-4-(1-(pyridin-2-yl)piperidin-4-yl)piperazin-1-yl)-N-methylacetamide 2,2,2-trifluoroacetate], under 0.1 µM.
On the same count and under the same terms, to `CNC(=O)CN1C[C@H](Cc2ccc(Cl)cc2)N(C2CCN(c3ccccn3)CC2)C[C@@H]1C(C)C` [compound 106, 2-((2S,5S)-5-(4-chlorobenzyl)-2-isopropyl-4-(1-(pyridin-2-yl)piperidin-4-yl)piperazin-1-yl)-N-methylacetamide 2,2,2-trifluoroacetate] belongs under 0.1 µM.
